In patent US11707070B2, “Inhibition of fungal growth by manganese depletion” (Chr. Hansen A/S, priority 2018, dated 2023):
Where two headings read alike, the source gives them in different places.

Tests used:
Debaromyces hansenii = test system: Debaromyces hansenii
Experimental: Absorbance at 600 nm was measured after 7 days of incubation at 17° C., compared to reference. Samples made in triplicate.
Two concentrations of manganese were used, 6 ppm and 0.6 ppm, in example 8.

Debaryomyces hansenii [1] = experiment: Yeast growth in yogurt with EDTA or scavenger (Example 9); format: cell-based; details: added to reference yogurt; FIG. 14
Experimental: The concentration of EDTA ranges from 14 mg/ml (top row), 7.10 mg/ml, 3.55 mg/ml, 1.78 mg/ml, 0.89 mg/ml, 0.44 mg/ml, 0.22 mg/ml to 0 mg/ml (bottom row).

Cryptococcus fragicola = experiment: Yeast agar-assay on fermented milk plates (Example 6); format: cell-based; details: added manganese on fermented milk agar plates
Experimental: Influence of manganese on the inhibitory effect against different molds were evaluated. An agar-assay resembling the manufacturing process and production of fermented milk products was used. L. rhamnosus and L. paracasei were used together as manganese scavenging agents. Reduced-fat (1.5% w/v) homogenized milk was heat-treated at 90±1° C. for 20 min and cooled immediately. A commercial starter culture (Streptococcus thermophilus and Lactobacillus delbrueckii subsp. bulgaricus) was inoculated at 0.02% (v/w) in 3 L buckets. […] The fermented milk products were divided into 200 mL bottles and cooled down. […] All the fermented milk samples were warmed to a temperature of 40° C. and added 40 ml of a 5% sterile agar solution that had been melted and cooled down to 60° C. This solution of fermented milk and agar was then poured into sterile Petri dishes and the plates were dried in a LAF bench for 30 min. Three target contaminants, including two Debaryomyces hansenii (strain 1 and strain 2) and one Cryptococcus fragicola were spotted in concentrations of 10^3, 10^2 and 10^1 CFU/spot. Plates were incubated at 7±1° C. and regularly examined for the growth of yeast.

Debaryomyces hansenii [2] = details: chemically defined medium, pH 6.5 or 4.5; 6 days at 17° C.; FIGS. 1 and 2
Experimental: Two D. hansenii isolated from spoiled yogurt (strain 1) and quark (strain 2), respectively, were used.
The minimal medium contains biotin 2 μg/L, calcium pantothenate 400 μg/L, folic acid 2 μg/L, inositol 2 mg/L, nicotinic acid 400 μg/L, p-amino benzoic acid 200 μg/L, pyridoxine 400 μg/L, riboflavin 200 μg/L, thiamine 400 μg/L, Boric acid 500 μg/L, copper sulfate 40 μg/L, potassium iodide 100 μg/L, ferric chloride 200 μg/L, sodium molybdate 200 μg/L, zinc sulfate 400 μg/L, potassium phosphate monobasic 0.5 g/L, potassium phosphate dibasic 0.5 g/L, magnesium sulfate 0.5 g/L, sodium chloride 0.1 g/L, calcium chloride 0.2 g/L, glucose 20 g/L, ammonium sulfate 5 g/L.
Two different pH were tested: pH 6.5 and 4.5.
The strains were inoculated to 150 μl of the different medium in a 96 well plate. The plates were incubated at 17° C. for several days and the growth of the yeast strains was followed by measuring absorbance at 600 nm in a plate reader.

| Structure (SMILES) | concentration at which cells stop growing (inhibitory effect) (Debaromyces hansenii; FIG. 12, aqueous phase filtered with 1.2 μm filter, 7 days at 17° C.) [mg/mL] | effect on growth of adding 0.6 ppm of manganese together with 0.05 mg/ml EDTA (Debaromyces hansenii; FIG. 13, 0.05 mg/ml EDTA + 0.6 ppm manganese) | concentration at which cells stop growing (inhibitory effect) (Debaromyces hansenii; FIG. 13, aqueous phase filtered with 0.2 μm filter, absence of manganese (0.6 ppm)) [mg/mL] | concentration reproducing the inhibition of manganese scavenging agent 1 (Debaryomyces hansenii [1]) | manganese concentration with inhibitory/toxic effect on yeast growth (Debaromyces hansenii; Example 8) [ppm] | Manganese concentration that seemed to inhibit the growth (Cryptococcus fragicola) [ppm] | manganese concentration below which growth is inhibited (Debaryomyces hansenii [2]) [ppm] |
| --- | --- | --- | --- | --- | --- | --- | --- |
| O=C(O)CN(CCN(CC(=O)O)CC(=O)O)CC(=O)O [EDTA, ethylenediaminetetraacetic acid] | 0.05 | restores the growth | 0.05 | up to 0.89 mg/ml |  |  |  |
| [Mn+2] [manganese] |  |  |  |  | 6 | 6 | < 0.01 |
